Laboratory results taken from patent publication US9617256B2 (priority 2007, dated 2017).
Values after ≈ are worked out from the molar mass of the structure shown. Where two headings read alike, the source gives them in different places.

How the values were obtained:
[1] = test system: AECO001 (ATCC25922); experiment: MIC broth microdilution, AECO001; format: cell-based, E. coli; conditions: Escherichia coli
Procedure: (§1) Bacterial isolates were cultivated from −70° C. frozen stocks by overnight passages at 35° C. in ambient air on Mueller-Hinton agar (Beckton Dickinson, Franklin Lakes, N.J.). Clinical isolates tested were obtained from various geographically diverse hospitals in the US and abroad (Focus Diagnostics, Herndon, Va. and JMI, North Liberty, Iowa). Quality control strains were from the American Type Culture Collection (ATCC; Rockville, Md.). Additional primary panel strains were generated using standard molecular biology techniques.
(§2) Minimum Inhibitory Concentrations (MICs) were determined by the broth microdilution method in accordance with the Clinical and Laboratory Standards Institute (CLSI) guidelines. In brief, organism suspensions were adjusted to a 0.5 McFarland standard to yield a final inoculum between 3×10^5 and 7×10^5 colony-forming units (CFU)/mL. Drug dilutions and inocula were made in sterile, cation adjusted Mueller-Hinton Broth (Beckton Dickinson). An inoculum volume of 100 μL was added to wells containing 100 μL of broth with 2-fold serial dilutions of drug. All inoculated microdilution trays were incubated in ambient air at 35° C. for 18-24 hours. […] Performance of the assay was monitored by the use of laboratory quality-control strains and levofloxacin, a compound with a defined MIC spectrum, in accordance with CLSI guidelines.
(§3) *AECO001 is ATCC25922, AECO063 is ATCC25922 bearing an acrAB mutation, APAE001 is ATCC27853, APAE006 is a strain of P. aeruginosa in which all efflux pumps are inactivated, APAE006+PMBN indicates MICs with the indicated strain in the presence of 8 micrograms per milliliter of polymyxin B nonapeptide, AABA1060 is a clinical isolate of Acinetobacter baumannii, ASAU001 is a laboratory strain of S. aureus (ATCC29213).

[2] = test system: AECO063 (ATCC25922 bearing an acrAB mutation); experiment: microbe, parasite or virus in culture; format: cell-based, E. coli; conditions: Escherichia coli, ATCC25922, read-out: MIC AECO063
Procedure: as §1, §2, §3

[3] = test system: APAE001 (ATCC27853); experiment: MIC broth microdilution, APAE001; format: cell-based, P. aeruginosa; conditions: Pseudomonas aeruginosa
Procedure: as §1, §2, §3

[4] = test system: APAE006 (strain of P. aeruginosa in which all efflux pumps are inactivated); experiment: microbe, parasite or virus in culture; format: cell-based; conditions: Pseudomonas aeruginosa
Procedure: as §1, §2, §3

[5] = test system: APAE006 in the presence of 8 micrograms per milliliter of polymyxin B nonapeptide; format: cell-based, P. aeruginosa; conditions: APAE006 with 8 micrograms per milliliter polymyxin B nonapeptide
Procedure: as §1, §2, §3

[6] = test system: AABA1060 (clinical isolate of Acinetobacter baumannii); experiment: MIC broth microdilution, AABA1060; format: cell-based; conditions: Acinetobacter baumannii, read-out: MIC AABA1060
Procedure: as §1, §2, §3

[7] = test system: ASAU001 (laboratory strain of S. aureus, ATCC29213); experiment: MIC broth microdilution, ASAU001; format: cell-based; conditions: Staphylococcus aureus, ATCC29213, read-out: MIC ASAU001
Procedure: as §1, §2, §3

[8] = ATCC25922, read-out: MIC AECO001
[9] = ATCC25922, read-out: MIC AECO001 HSA AGP
[10] = ATCC27853, read-out: MIC APAE001, APAE001 (ATCC27853)
[11] = read-out: MIC APAE006, APAE006, all efflux pumps inactivated
[12] = ATCC27853, read-out: MIC APAE001, APAE001 is ATCC27853
[13] = read-out: MIC APAE006, P. aeruginosa, all efflux pumps inactivated

Compound | MIC [1, 8] [µg/mL] | MIC [1, 9] [µg/mL] | MIC [2] [µg/mL] | MIC [3, 10] [µg/mL] | MIC [4, 11] [µg/mL] | MIC APAE006 + PMBN [5] | MIC [6] [µg/mL] | MIC [7] [µg/mL] | MIC [3, 12] [µg/mL] | MIC [4, 13] [µg/mL]
CC(C)(N)[C@@H](NC(=O)c1ccc(C#Cc2ccc(CNC3CC3)cc2)cc1)C(=O)NO [Compound 121-2] | 2 to 16 (≈ 4.76 to 38 µM) | 16 to 64 (≈ 38 to 152 µM) | 2 to 16 (≈ 4.76 to 38 µM) | 16 to 64 (≈ 38 to 152 µM) | < 2 | A (MIC's of 2.0 μg/mL or less = A) | 16 to 64 (≈ 38 to 152 µM) | 16 to 64 (≈ 38 to 152 µM) |  | 
CCOCc1ccc(C#Cc2ccc(C(=O)NC(C(=O)NO)C(C)(C)N)cc2)cc1 (centres unmarked) [Compound 126-2] | < 2 | < 2 | < 2 | 2 to 16 (≈ 4.88 to 39.1 µM) | < 2 | A (MIC's of 2.0 μg/mL or less = A) | < 2 | 16 to 64 (≈ 39.1 to 156 µM) |  | 
O=C(NO)[C@@H](Cc1ccccc1)NS(=O)(=O)c1ccc(C#Cc2ccc(CN3CCOCC3)cc2)cc1 [Example 62-4, (R)—N-Hydroxy-2-[4-(4-morpholin-4-ylmethyl-phenylethynyl)-benzenesulfonylamino]-3-phenyl-propionamide] | 2 to 16 (≈ 3.85 to 30.8 µM) |  |  |  |  |  |  | > 64 | > 64 | 2 to 16 (≈ 3.85 to 30.8 µM)
O=C(NO)[C@H](COCc1ccccc1)NS(=O)(=O)c1ccc(C#Cc2ccc(CN3CCOCC3)cc2)cc1 [Example 62-5] | 2 to 16 (≈ 3.64 to 29.1 µM) |  |  |  |  |  |  | > 64 | > 64 | 16 to 64 (≈ 29.1 to 116 µM)
O=C(NO)[C@H](Cc1ccccc1)NS(=O)(=O)c1ccc(C#Cc2ccc(CN3CCOCC3)cc2)cc1 [Example 62-6] | 16 to 64 (≈ 30.8 to 123 µM) |  |  |  |  |  |  | > 64 | > 64 | 2 to 16 (≈ 3.85 to 30.8 µM)
O=C(NO)C1(NS(=O)(=O)c2ccc(C#Cc3ccc(CN4CCOCC4)cc3)cc2)CCCC1 [Example 62-8] | 16 to 64 (≈ 33.1 to 132 µM) |  |  |  |  |  |  | > 64 | > 64 | 16 to 64 (≈ 33.1 to 132 µM)
CSC[C@H](NS(=O)(=O)c1ccc(C#Cc2ccc(CN3CCOCC3)cc2)cc1)C(=O)NO [Example 62-9] | 16 to 64 (≈ 32.7 to 131 µM) |  |  |  |  |  |  | > 64 | > 64 | 2 to 16 (≈ 4.08 to 32.7 µM)
O=C(NO)[C@@H]1CCCN1S(=O)(=O)c1ccc(C#Cc2ccc(CN3CCOCC3)cc2)cc1 [Example 62-10] | 2 to 16 (≈ 4.26 to 34.1 µM) |  |  |  |  |  |  | > 64 | > 64 | < 2
O=C(NO)[C@@H]1CCN1S(=O)(=O)c1ccc(C#Cc2ccc(CN3CCOCC3)cc2)cc1 [Example 62-11] | 2 to 16 (≈ 4.39 to 35.1 µM) |  |  |  |  |  |  | > 64 | > 64 | < 2
COc1ccc(C#CC#Cc2ccc(C(=O)N[C@H](C(=O)NO)[C@@H](C)N)cc2)cc1 [Example 82-1, N-((1S,2R)-2-Amino-1-hydroxycarbamoyl-propyl)-4-[4-(4-methoxy-phenyl)-buta-1,3-diynyl]-benzamide] | < 2 | 2 to 16 (≈ 5.11 to 40.9 µM) | < 2 | 2 to 16 (≈ 5.11 to 40.9 µM) | < 2 | A (MIC's of 2.0 μg/mL or less = A) | 2 to 16 (≈ 5.11 to 40.9 µM) | 16 to 64 (≈ 40.9 to 164 µM) |  | 
CC(C)(O)[C@H](NC(=O)c1ccc(C#CC#Cc2ccc(N)cc2)cc1)C(=O)NO [Example 82-17] | < 2 | < 2 | < 2 | < 2 | < 2 | A (MIC's of 2.0 μg/mL or less = A) | < 2 | 2 to 16 (≈ 5.11 to 40.9 µM) |  | 
C[C@@H](O)[C@H](NC(=O)c1ccc(C#CC#Cc2cccc(F)c2)cc1)C(=O)NO [Example 82-18] | < 2 | 2 to 16 (≈ 5.26 to 42.1 µM) | < 2 | 2 to 16 (≈ 5.26 to 42.1 µM) | < 2 | A (MIC's of 2.0 μg/mL or less = A) | 16 to 64 (≈ 42.1 to 168 µM) | 16 to 64 (≈ 42.1 to 168 µM) |  | 
